Calls of active or inactive are those of the source.
Columns and labels:
[1] = target: Eukaryotic translation initiation factor 4E (Mus musculus, UniProt P63073); assay: blockers of eIF4G binding by eIF4E – biochemical, TR-FRET, dose response (AID 855); format: functional;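 further: potency for disrupting eIF4E binding to eIF4GI seen as loss of FRET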
[2] = target: Large T antigen (Simian virus 40, UniProt P03070); format: functional, Betapolyomavirus macacae;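 further: Confirmatory-stage PubChem screen for compounds that inhibit SV40 T antigen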
[3] = target: T1, Short transient receptor potential channel 4 (Mus musculus, UniProt Q9QUQ5); assay: block of DAMGO-driven TRPC4 calcium entry – cell-based, HEK293 TRPC4/mu-opioid, Fluo-4 calcium, dose response (AID 434942); format: functional;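 further: potency of inhibitors blocking the TRPC4 calcium response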
T1 sequence (Q9QUQ5 whole entry): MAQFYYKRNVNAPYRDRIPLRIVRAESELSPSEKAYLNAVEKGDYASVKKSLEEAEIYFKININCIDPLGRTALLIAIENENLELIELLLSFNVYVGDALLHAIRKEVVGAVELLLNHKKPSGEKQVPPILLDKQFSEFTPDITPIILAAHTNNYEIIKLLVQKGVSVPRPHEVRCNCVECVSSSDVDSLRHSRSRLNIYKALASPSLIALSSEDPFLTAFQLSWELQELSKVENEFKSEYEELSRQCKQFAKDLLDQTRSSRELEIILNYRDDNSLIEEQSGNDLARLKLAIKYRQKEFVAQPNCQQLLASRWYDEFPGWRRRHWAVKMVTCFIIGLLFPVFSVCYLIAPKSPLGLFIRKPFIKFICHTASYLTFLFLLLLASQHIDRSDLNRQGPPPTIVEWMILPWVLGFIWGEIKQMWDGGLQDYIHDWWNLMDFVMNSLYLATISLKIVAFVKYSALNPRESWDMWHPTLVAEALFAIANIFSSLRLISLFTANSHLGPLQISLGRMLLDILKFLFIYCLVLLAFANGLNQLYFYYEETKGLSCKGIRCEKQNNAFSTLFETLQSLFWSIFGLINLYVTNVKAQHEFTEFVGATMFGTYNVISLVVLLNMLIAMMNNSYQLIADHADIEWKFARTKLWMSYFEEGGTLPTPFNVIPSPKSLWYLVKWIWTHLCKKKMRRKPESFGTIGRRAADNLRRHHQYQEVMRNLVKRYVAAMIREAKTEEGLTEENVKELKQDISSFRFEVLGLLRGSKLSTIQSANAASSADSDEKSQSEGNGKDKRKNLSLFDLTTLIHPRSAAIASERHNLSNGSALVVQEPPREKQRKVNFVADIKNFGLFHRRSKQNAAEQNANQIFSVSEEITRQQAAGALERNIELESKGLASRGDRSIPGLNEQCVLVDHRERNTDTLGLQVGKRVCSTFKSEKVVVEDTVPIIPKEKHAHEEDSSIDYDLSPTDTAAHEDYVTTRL

[4] = target: T2, Aminopeptidase N (Plasmodium falciparum FcB1/Columbia, UniProt O96935); assay: malaria alanyl aminopeptidase activity blockers – biochemical, fluorogenic H-Leu-NHMec substrate, 1536-well (AID 1445); design: species or system Plasmodium falciparum 3D7, 3D7
T2 sequence (O96935 whole entry): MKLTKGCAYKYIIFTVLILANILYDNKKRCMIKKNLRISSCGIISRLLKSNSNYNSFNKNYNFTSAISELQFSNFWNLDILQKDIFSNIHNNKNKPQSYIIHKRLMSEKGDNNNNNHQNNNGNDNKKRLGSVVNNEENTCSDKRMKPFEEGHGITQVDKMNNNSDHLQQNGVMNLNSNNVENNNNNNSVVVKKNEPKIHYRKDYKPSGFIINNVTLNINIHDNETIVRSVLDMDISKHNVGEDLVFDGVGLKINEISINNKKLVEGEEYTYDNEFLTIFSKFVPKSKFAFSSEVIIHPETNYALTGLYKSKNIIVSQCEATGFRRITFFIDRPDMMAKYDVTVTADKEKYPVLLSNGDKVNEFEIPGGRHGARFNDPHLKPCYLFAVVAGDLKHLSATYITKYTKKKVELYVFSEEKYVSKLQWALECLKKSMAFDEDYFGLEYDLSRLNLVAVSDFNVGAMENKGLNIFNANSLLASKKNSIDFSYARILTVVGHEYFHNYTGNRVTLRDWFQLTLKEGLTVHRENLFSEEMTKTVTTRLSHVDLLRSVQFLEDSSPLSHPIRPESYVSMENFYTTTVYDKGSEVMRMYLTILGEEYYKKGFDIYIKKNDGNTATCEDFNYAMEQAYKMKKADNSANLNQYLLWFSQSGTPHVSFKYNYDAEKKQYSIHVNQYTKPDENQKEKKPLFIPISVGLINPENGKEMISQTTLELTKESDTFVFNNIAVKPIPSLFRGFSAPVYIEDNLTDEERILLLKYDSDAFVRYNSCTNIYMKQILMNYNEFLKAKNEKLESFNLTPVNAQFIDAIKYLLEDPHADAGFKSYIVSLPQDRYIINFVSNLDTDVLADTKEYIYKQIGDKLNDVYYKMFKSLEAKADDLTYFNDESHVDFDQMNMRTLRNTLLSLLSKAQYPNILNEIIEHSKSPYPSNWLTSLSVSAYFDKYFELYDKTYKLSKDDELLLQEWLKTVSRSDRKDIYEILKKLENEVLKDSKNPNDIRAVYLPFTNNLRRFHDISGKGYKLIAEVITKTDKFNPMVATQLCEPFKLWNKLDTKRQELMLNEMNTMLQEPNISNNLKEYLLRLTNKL

[5] = target: T3, Replicative DNA helicase DnaB (Mycobacterium tuberculosis, UniProt P9WMR3); assay: DnaB intein splicing inhibitors, dose response, biochemical, cell-free fluorescence (AID 449749); format: functional
T3 sequence (P9WMR3 whole entry): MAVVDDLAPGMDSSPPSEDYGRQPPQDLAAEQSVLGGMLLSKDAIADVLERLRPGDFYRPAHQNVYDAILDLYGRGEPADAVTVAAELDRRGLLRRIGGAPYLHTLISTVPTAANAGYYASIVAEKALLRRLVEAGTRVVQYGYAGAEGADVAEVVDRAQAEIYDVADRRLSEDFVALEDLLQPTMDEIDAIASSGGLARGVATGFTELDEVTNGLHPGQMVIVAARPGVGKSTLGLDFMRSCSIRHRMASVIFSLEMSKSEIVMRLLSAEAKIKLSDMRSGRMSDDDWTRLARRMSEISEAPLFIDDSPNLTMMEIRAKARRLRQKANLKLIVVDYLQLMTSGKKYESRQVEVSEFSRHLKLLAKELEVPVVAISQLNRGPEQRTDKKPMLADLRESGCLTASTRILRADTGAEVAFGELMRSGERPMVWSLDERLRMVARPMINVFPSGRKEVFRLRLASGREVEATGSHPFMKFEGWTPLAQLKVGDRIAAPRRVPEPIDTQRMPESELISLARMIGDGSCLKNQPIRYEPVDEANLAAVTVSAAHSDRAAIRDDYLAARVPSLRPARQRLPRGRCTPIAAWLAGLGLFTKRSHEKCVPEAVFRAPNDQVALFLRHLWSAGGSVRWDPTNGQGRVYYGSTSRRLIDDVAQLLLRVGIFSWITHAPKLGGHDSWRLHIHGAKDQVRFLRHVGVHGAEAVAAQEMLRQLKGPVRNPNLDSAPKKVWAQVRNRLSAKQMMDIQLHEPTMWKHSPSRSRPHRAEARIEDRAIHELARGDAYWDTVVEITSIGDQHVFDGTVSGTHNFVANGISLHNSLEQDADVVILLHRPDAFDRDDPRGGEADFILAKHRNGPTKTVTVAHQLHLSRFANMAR

[6] = target: T4, Protein RecA (Mycobacterium tuberculosis, UniProt P9WHJ3); assay: Fluorescence Cell-Free Homogeneous Dose Retest to Identify Inhibitors of RecA-Intein Splicing Activity. [Related pubchem assays (depositor defined):AID2097, AID2223, AID489010, AID492950]; format: functional
T4 sequence (P9WHJ3 whole entry): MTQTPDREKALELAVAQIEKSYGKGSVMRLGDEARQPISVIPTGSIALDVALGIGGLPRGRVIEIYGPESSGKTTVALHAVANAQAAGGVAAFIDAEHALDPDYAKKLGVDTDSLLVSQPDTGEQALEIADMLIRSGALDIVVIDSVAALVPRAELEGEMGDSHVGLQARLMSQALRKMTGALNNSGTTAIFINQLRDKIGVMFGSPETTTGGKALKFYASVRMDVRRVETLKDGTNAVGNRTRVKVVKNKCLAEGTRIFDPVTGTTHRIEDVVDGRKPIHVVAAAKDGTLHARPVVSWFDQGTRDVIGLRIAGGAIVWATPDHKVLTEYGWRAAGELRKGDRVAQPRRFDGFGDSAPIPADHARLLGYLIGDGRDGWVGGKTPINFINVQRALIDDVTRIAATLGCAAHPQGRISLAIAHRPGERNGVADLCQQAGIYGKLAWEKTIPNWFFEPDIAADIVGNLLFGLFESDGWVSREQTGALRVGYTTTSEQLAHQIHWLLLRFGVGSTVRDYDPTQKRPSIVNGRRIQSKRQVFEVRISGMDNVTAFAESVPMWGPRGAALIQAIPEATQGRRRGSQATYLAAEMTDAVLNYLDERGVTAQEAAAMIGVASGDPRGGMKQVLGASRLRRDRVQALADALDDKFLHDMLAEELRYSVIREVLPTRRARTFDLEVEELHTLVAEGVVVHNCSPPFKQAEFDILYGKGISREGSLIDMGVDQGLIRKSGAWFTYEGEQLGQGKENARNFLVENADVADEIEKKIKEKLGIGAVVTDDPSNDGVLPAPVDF

[7] = target: T5, Ubiquitin-conjugating enzyme E2 N (Homo sapiens, UniProt P61088); format: functional;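 further: Dose-response confirmation in a TR-FRET assay detecting UBC13-driven polyubiquitin chain formation, inhibition measured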
T5 sequence (P61088 whole entry): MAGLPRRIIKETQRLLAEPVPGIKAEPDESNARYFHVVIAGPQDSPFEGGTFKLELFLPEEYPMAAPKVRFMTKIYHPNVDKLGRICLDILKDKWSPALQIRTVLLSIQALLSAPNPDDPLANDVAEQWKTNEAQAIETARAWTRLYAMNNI

[8] = target: T6, Leucine aminopeptidase (Plasmodium falciparum 3D7, UniProt Q8IL11); assay: P. falciparum M17LAP inhibitors, primary screen, biochemical, fluorogenic H-Leu-NHMec substrate, 1536-well (AID 1619); format: functional
T6 sequence (Q8IL11 whole entry): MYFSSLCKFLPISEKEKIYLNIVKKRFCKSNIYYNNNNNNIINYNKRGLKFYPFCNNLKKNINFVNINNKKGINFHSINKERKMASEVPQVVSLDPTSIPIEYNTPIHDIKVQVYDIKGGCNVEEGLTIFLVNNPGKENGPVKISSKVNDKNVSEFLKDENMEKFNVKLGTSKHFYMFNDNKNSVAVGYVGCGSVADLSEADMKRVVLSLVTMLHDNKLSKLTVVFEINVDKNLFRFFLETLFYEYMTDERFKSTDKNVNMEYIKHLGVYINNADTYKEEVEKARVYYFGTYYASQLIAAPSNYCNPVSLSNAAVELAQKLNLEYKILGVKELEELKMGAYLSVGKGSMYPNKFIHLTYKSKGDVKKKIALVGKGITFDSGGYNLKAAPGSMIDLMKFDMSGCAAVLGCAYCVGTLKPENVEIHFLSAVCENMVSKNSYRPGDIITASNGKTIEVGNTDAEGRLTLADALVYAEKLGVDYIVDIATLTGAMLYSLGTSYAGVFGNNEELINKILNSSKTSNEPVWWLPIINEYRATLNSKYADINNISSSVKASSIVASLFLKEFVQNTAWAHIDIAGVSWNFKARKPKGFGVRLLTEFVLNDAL

[9] = target: DNA dC->dU-editing enzyme APOBEC-3G (Homo sapiens, UniProt Q9HC16); assay: Dose Response confirmation of small molecule APOBEC3G DNA Deaminase Inhibitors via a fluorescence-based single-stranded DNA deaminase assay. [Related pubchem assays (depositor defined):AID493012, AID493028]; format: functional
[10] = target: Nonstructural protein 1 (Influenza A virus, UniProt Q194T2); format: functional, Influenza A virus (A/California/07/2009(H1N1))
[11] = cells; format: functional, cell-based
[12] = cells; format: functional, cell-based; remark: listed apart in the source
[13] = NIH3T3 cell viability loss – ATP luminescence, mouse fibroblasts, counter-screen, dose response (AID 2010); format: functional, cell-based;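 further: cells exposed to compound for about 90 hours before reading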
[14] = Trypanosoma cruzi growth suppression in host cells – NIH3T3 host cells, beta-gal luminescence, confirmation (AID 2044); format: functional, cell-based;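 further: intracellular parasites grown in NIH/3T3 mouse fibroblasts as host cells; luminescent beta-galactosidase reporter signal from transgenic T. cruzi replicating inside host cells; inhibitors lower the luminescence signal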

Sequence of Eukaryotic translation initiation factor 4E (P63073 whole entry): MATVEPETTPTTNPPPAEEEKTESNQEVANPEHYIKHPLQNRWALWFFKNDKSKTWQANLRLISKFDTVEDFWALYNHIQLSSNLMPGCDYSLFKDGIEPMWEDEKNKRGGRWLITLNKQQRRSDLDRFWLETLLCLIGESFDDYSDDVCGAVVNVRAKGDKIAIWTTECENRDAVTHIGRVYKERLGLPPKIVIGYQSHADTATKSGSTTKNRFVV
Sequence of DNA dC->dU-editing enzyme APOBEC-3G (Q9HC16 whole entry): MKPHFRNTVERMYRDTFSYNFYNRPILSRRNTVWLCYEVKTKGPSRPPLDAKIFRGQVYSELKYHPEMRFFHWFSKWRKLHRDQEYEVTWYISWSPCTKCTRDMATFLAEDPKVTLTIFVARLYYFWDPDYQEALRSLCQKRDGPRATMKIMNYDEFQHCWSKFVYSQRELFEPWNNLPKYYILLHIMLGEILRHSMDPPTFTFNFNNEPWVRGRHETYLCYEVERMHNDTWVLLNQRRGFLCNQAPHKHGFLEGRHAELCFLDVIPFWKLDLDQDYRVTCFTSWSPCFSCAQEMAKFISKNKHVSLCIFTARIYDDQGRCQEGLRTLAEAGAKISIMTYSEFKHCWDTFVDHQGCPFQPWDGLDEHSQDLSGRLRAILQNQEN
Sequence of Nonstructural protein 1 (Q194T2 whole entry): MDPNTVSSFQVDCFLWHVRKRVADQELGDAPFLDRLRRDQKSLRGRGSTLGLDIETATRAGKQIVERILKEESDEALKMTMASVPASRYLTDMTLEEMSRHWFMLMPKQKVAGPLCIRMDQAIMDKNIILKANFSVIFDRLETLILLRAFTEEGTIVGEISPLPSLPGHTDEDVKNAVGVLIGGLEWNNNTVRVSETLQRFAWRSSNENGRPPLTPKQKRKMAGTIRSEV
Sequence of Large T antigen (P03070 whole entry): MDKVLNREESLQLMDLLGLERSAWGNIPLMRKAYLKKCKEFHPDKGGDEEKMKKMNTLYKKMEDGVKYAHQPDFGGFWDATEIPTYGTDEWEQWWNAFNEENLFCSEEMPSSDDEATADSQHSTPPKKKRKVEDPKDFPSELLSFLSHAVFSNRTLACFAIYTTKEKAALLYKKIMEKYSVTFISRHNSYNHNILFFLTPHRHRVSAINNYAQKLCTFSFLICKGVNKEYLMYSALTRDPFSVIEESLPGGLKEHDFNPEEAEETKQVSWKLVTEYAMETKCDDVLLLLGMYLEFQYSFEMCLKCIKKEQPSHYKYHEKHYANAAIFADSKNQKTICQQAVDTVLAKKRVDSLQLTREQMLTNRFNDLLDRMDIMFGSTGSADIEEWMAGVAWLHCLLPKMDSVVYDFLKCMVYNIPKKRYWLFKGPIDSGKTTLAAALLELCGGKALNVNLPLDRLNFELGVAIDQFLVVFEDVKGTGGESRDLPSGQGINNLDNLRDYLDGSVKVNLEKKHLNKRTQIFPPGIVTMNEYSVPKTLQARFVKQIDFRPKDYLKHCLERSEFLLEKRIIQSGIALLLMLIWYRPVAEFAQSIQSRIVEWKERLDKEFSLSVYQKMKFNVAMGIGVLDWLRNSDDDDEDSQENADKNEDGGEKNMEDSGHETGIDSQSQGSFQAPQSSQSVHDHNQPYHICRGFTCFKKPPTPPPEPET

With `Oc1ccc(-c2[nH]ncc2-c2cccc3cccnc23)c(O)c1` the IC50 [1] was > 64 µM (inactive) and the IC50 [2] was 25.7 µM (active).

For `Fc1ccc(C2CCCN2Cc2nc(Cc3ccccc3)no2)cc1` (stereo unspecified), the IC50 [1] was 50 µM (inactive).

For `O=C(Nc1ccccc1Oc1cccnc1)C1CCCN(Cc2ccc(F)cc2)C1` (stereo unspecified), the EC50 [3] was 3.35 µM (active).

For `O=C(NN1C(=O)c2ccccc2NC12CCCCC2)c1ccccc1`, the IC50 [4] was 6.87 µM (active).

In the case of `CCOc1cc(C2C(C#N)=C(N)Oc3[nH]nc(-c4ccccc4)c32)ccc1O` (stereo unspecified), the AC50 [5] was 1.81 µM (active), the EC50 [6] was 0.689 µM (active) and the IC50 [7] was > 20 µM (inactive). For the same compound, the IC50 [8] was 77.1 µM (active).

With `CCOc1ccc(Nc2nc3cc(S(=O)(=O)N(CC)CC)ccc3o2)cc1` the IC50 [9] was > 100 µM (inactive).

In the case of `COc1cc2cc(C(c3nnnn3C3CCCC3)N(C)C3CCCCC3)c(O)nc2cc1OC` (stereo unspecified), the IC50 [1] was > 64 µM (inactive).

In the case of `O=C(Cc1ccccc1[N+](=O)[O-])OCc1cccc([N+](=O)[O-])c1`, the EC50 [3] was 0.376 µM (active).

For `Cc1nnc2sc(SCC(=O)Nc3ccc(Cl)cc3)nn2c1=O`, the IC50 [10] was 9.75 µM (active).

With `COc1ccc(CC(=O)Nc2nnc(C(C)C)s2)cc1` the IC50 [1] was 50 µM (inactive).

With `Cc1ccc(/C(=N/Nc2ncnc3ccccc23)C(=O)O)cc1` the IC50 [10] was 9.46 µM (active), the EC50 [11] was > 350 µM (not active) and the EC50 [12] was > 350 µM (not active).

For `Cc1cc(C)n(CC(=O)N/N=C/c2cc(Br)cc([N+](=O)[O-])c2O)n1`, the IC50 [4] was 19.2 µM (active), the EC50 [13] was 15.9 µM (active) and the EC50 [14] was 0.678 µM (active).

For `CSc1n/c(=N/C(C)=O)ss1`, the IC50 [9] was 25.8 µM (active).
